In patent US12655101B2, “Small molecules with antibacterial activity” (NEW MEXICO TECH UNIVERSITY RESEARCH PARK CORPORATION, priority 2021, dated 2026):
In brackets after ≈: the same amount, converted by molar mass. Like-named read-outs stand apart in the source and are kept apart here.

Assays:
MRSA ATCC BAA-44 = assay: MIC on MRSA ATCC BAA-44; assay type: cell-based, S. aureus; conditions: for MIC: Staphylococcus aureus
Experimental: MRSA BAA-44: MRSA ATCC BAA-44 was grown from a glycerol stock by placing a small volume of cells onto a Mueller-Hinton agar plate (MHA). The MHA plate was incubated overnight at 37° C. A single colony was used to inoculate Mueller-Hinton broth (MHB) to obtain a bacterial broth suspension. The MHB broth suspension was grown at 37° C. on a rotary shaking incubator (100 rpm) for 12 hours. The bacterial cell concentration was adjusted to ˜5×10^5 colony forming units per milliliter (CFU/mL) in MHB−/+10, 20, or 40% FBS using optical density (OD) at 595 nm. 500 μL aliquots of the adjusted bacterial cell suspension were placed into borosilicate glass tubes. The cell suspensions were treated with 100 μM compound of interest and serially diluted two-fold. The culture tubes were incubated for 18 hours at 37° C. Efficacy was either assessed visually or by adding 10% v/v MTT (5 mg/mL stock) after the 18 hour incubation period, where the cell suspensions were subsequently incubated for 10 minutes to allow the MTT reagent to carry out the colorimetric reaction.

A. baumannii ATCC 15151 = assay: MIC on A. baumannii ATCC 15151; assay type: cell-based; conditions: Acinetobacter baumannii, ATCC15151; A. baumannii ATCC 15151 (heading of Example 9)
HeLa cells = assay: HeLa cell toxicity IC50 (MTT); assay type: cell-based; conditions: Homo sapiens, 10% FBS
Experimental: HeLa cells: HeLa cells were trypsinized and counted in number of cells/mL using a hemocytometer. Cells were then plated at 4×10^3 HeLa cells/100 μL in tissue culture-treated 96-well plates in DMEM+1% penicillin/streptomycin (P/S)+10% FBS. HeLa cells were treated with 100 μM of a compound of interest and serially diluted two-fold. Samples were also prepared with no treatment, 1% DMSO, and 100 μM PAO. The cells were incubated for 48 hours at 37° C. in a humidified incubator with 5% CO2. 10% v/v MTT reagent (5 mg/mL stock) was added to each sample, and the samples were incubated for 2 hours before removing the supernatant and solubilizing the samples in 100 μL DMSO. OD readings were obtained at 595 nm. IC50 values were reported.

red blood cells = assay: Red blood cell lysis capacity; assay type: cell-based
Experimental: Diluted red blood cells were aliquoted into clear tissue culture media−/+addition of 40% human serum and added either 2 μL or 40 μL of cell lysis buffer (LB), 50 μM, 40 μM, 20 μM, 15 μM, 10 μM, or 5 μM Compound 14. The samples were agitated by vortex and spun by centrifuge.

E. coli pNMT41 = assay: 6-chloro-4-methyl-umbelliferyl-β-D-glucuronide assay for beta-glucuronidase (inner membrane disruption); assay type: cell-based; conditions: 10 μg/mL PME
Experimental: E. coli pNMT 41 was grown from a glycerol stock by placing a small volume of cells onto a MHA plate. The MHA plate was incubated overnight at 37° C. A single colony was subsequently used to inoculate MHB+100 μg/mL ampicillin to obtain a bacterial broth suspension. The MHB broth suspension was grown at 37° C. on a rotary shaking incubator (100 rpm) for 12 hours. The bacterial cell concentration was adjusted to ˜1×10^7 CFU/mL in MHB using OD at 595 nm. The cells were washed 3× by spinning by centrifuge and washing with 500 μL medium 200. The cells were resuspended in 7 mL medium 200. The cells were treated with 10 μM melittin, 6, 12, 24, and 100 μM Compound 25, and 10 μg/mL PME. The cells were incubated at 37° C. for 30 minutes. 1 μM umbelliferyl was added, and the cells were incubated further for 10 minutes at 37° C.
The cells were then incubated at 37° C. for 45 minutes. 1 μM umbelliferyl was added, and the cells were incubated further for 10 minutes at 37° C.

E. coli pUC18 = assay: Nitrocefin β-lactamase assay (outer membrane disruption); assay type: cell-based; conditions: 10 μM melittin; 10 μg/mL PME; 6, 12, 24 μM Compound 25 and 26; 100 μM Compound 27; 50 μM Compound 15; 30 minutes
Experimental: E. coli pUC18 was grown from a glycerol stock by placing a small volume of cells onto a MHA plate. The MHA plate was incubated overnight at 37° C. A single colony was subsequently used to inoculate MHB+100 μg/mL ampicillin to obtain a bacterial broth suspension. The MHB broth suspension was grown at 37° C. on a rotary shaking incubator (100 rpm) for 12 hours. The cells were washed 3× by centrifuging and washing with 1 mL medium 200. The washed bacterial cell concentration was adjusted to ˜1×10^7 CFU/mL in medium 200 using OD at 595 nm. The cells were treated cells with 10 μM melittin; 6, 12, 24 μM Compound 25; 6 μM, 12 μM, 24 μM Compound 26; 100 μM Compound 27; 50 μM Compound 15; and 10 μg/mL PME. The cells were incubated at 37° C. for 30 minutes; added 50 μM nitrocefin and incubated 10 minutes at 37° C.
pUC18 E. coli carry an ampicillin resistance gene and produce β-lactamase.

[1] = 18 h, read-out: MIC in the presence of 40% FBS, MRSA ATCC BAA-44, 40% FBS
[2] = MRSA ATCC BAA-44, absence of serum, read-out: MIC in the absence of serum
[3] = MRSA ATCC BAA-44, serum not stated, read-out: MIC
[4] = HeLa, Table 7, read-out: IC50 on HeLa in 10% FBS
[5] = HeLa cells, read-out: IC50 10% FBS
[6] = no serum (note in the cell), read-out: MIC (μM) in MRSA BAA-44

Structure (SMILES) | MIC (MRSA ATCC BAA-44; [1]) | MIC (MRSA ATCC BAA-44; [2]) | MIC (MRSA ATCC BAA-44; [3]) | toxicity to MRSA BAA-44 (MRSA ATCC BAA-44; absence of serum) | MIC (A. baumannii ATCC 15151) | IC50 (HeLa cells; [4]) | IC50 (HeLa cells; [5]) | red blood cell lysis (red blood cells; 40% additional human serum, 50 μM Compound 14) | red blood cell lysis (red blood cells; no additional serum, 40 μM Compound 14) | inner membrane disruption (GUS fluorescence) (E. coli pNMT41; separate experiment, 12.5 μM Compound 14, 45 minutes) | MIC (MRSA ATCC BAA-44; [6]) | inner membrane disruption (GUS fluorescence) (E. coli pNMT41; 10 μM melittin, 6, 12, 24, 100 μM Compound 25, 30 minutes) | outer membrane disruption (β-lactamase leakage, nitrocefin colour) (E. coli pUC18)
Nc1cccc2[nH]cc(/C=N/Nc3ccc(Cl)cc3)c12 [Compound 14, (E)-3-((2-(4-chlorophenyl)hydrazineylidene)methyl)-1H-indol-4-amine] | 100 µM | 50 µM (≈ 14.2 µg/mL) | 50 to 100 µM (≈ 14.2 to 28.5 µg/mL) | toxic | 6 µM (≈ 1.71 µg/mL) | 36.7 ± 3.8 µM | 36.7 ± 3.8 µM | did not lyse cells | lysed some red blood cells | did not disrupt inner membrane | – | – | –
Clc1ccc(N/N=C/c2c[nH]c3ccc(Br)cc23)cc1 [Compound 15, (E)-5-bromo-3-((2-(4-chlorophenyl)hydrazineylidene)methyl)-1H-indole] | > 100 µM | 50 µM (≈ 17.4 µg/mL) | – | – | 12.5 µM (≈ 4.36 µg/mL) | 20.9 ± 1.5 µM | 20.9 ± 1.5 µM | – | – | – | – | – | –
Brc1ccc(N/N=C/c2c[nH]c3cccc(OCc4ccccc4)c23)cc1.Cl [Compound 25, (E)-2-((4-(benzyloxy)-1H-indol-3-yl)methylene)-1-(4-bromophenyl)hydrazin-1-ium chloride] | – | – | 25 µM | – | 3 µM | 30.4 ± 3.3 µM | 30.4 ± 3.3 µM | – | – | – | 50 µM | did not disrupt the inner membrane | –
Cl.Clc1ccc(N/N=C/c2c[nH]c3cccc(OCc4ccccc4)c23)cc1 [Compound 26, (E)-2-((4-(benzyloxy)-1H-indol-3-yl)methylene)-1-(4-chlorophenyl)hydrazin-1-ium] | – | – | 25 µM | – | 3 µM | 37.3 ± 1.8 µM | 37.3 ± 1.8 µM | – | – | – | 50 µM | – | –
Cl.Fc1ccc(N/N=C/c2c[nH]c3cccc(OCc4ccccc4)c23)cc1 [Compound 27, (E)-2-((4-(benzyloxy)-1H-indol-3-yl)methylene)-1-(4-fluorophenyl)hydrazin-1-ium] | – | – | 100 µM | – | 12.5 µM | 25.8 ± 5.2 µM | 25.8 ± 5.2 µM | – | – | – | 100 µM | – | caused outer membrane disruption
